Molecules are shown by their SMILES.

Here are results for 29 compounds from patent US20130072523A1, “ANALOGUES FOR THE TREATMENT OR PREVENTION OF FLAVIVIRUS INFECTIONS” (VERTEX PHARMACEUTICALS INCORPORATED, priority 2009, published 2013).

The test system of this experiment is HCV 1b genotype. The experiment is described as follows: Cell-based luciferase reporter HCV (Ib) RNA replication assay (Huh-ET replicon cells). As to conditions: Hepatitis C virus, 96 h; HCV 1b genotype replicon, 4 days incubation, luciferase readout. The text has this:
Cell-Based Luciferase Reporter HCV (Ib) RNA Replication Assay Cell Culture
Replicon cell lines Huh-5.2 are derived from the Huh-7 hepatocarcinoma cell line are maintained in culture as generally described in Krieger, N; Lohmann, V; Bartenschlager, R. Enhancement of hepatitis C virus RNA replication by cell culture-adaptive mutations. J. Virol. 2001, 75, 4614-4624. The Huh-5.2 cells contain the highly cell culture-adapted replicon I389 Luc-ubi-neo/NS3-375.1 construct that carries, in addition to the neomycin gene, an integrated copy to the firefly luciferase gene (Krieger, N; Lohmann, V; Bartenschlager, R. Enhancement of hepatitis C virus RNA replication by cell culture-adaptive mutations. J. Virol. 2001, 75, 4614-4624). This cell line allows measurement of HCV RNA replication and translation by measuring luciferase activity. It has been previously shown that the luciferase activity tightly follows the replicon RNA level in these cells (Krieger, N; Lohmann, V; Bartenschlager, R. Enhancement of hepatitis C virus RNA replication by cell culture-adaptive mutations. J. Virol. 2001, 75, 4614-4624). The Huh-ET cell line has the same features as those mentioned for Huh-5.2 cell line, except that ET cells are more robust and contain an adaptative mutation in the HCV NS4B gene instead of NS5A. Both cell lines are maintained in cultures at a sub-confluent level (<85%) as the level of replicon RNA is highest in actively proliferating cells. The culture media used for cell passaging consist of DMEM (Gibco BRL Laboratories, Mississauga, ON, Canada) supplemented with 10% foetal bovine serum with 1% penicilin/streptomycin, 1% glutamine, 1% sodium pyruvate, 1% non-essential amino acids, and 180 μg/ml of G418 final concentration. Cells are incubated at 37° C., in an atmosphere of 5% CO2 and passaged twice a week to maintain sub-confluence.
Approximately 3000 viable Huh-ET cells (100 μl) are plated per well in a white opaque 96-well microtiter plate. The cell culture media used for the assay is the same as described above except that it contains no G418 and no phenol red. After an incubation period of 3-4 hours at 37° C. in a 5% CO2 incubator, compounds (100 μl) are added at various concentrations. Cells are then further incubated for 4 days at 37° C. in a 5% CO2 incubator. Thereafter, the culture media is removed and cells are lysed by the addition of 95 μL of the luciferase buffer (luciferin substrate in buffered detergent). Cell lysates are incubated at room temperature and protected from direct light for at least 10 minutes. Plates are read for luciferase counts using a luminometer (Wallac MicroBeta Trilux, Perkin Elmer™, MA, USA).
The 50% inhibitory concentrations (IC50s) for inhibitory effect are determined from dose response curves using eleven concentrations per compound in duplicate. Curves are fitted to data points using nonlinear regression analysis, and IC50s are interpolated from the resulting curve using GraphPad Prism software, version 2.0 (GraphPad Software Inc., San Diego, Calif., USA).
EC50 ranges are presented in micromolar as follows: μM+++<=0.005<++<=5.0<+.
For orientation: IC50 means the concentration needed to halve the response being measured. Turning to `CC[C@H]1C[C@@H](c2ncc(C#Cc3ccc(C#Cc4cnc([C@@H]5C[C@H](CC)CN5C(=O)[C@@H](NC(=O)OC)C(C)C)[nH]4)cc3)[nH]2)N(C(=O)[C@@H](NC(=O)OC)C(C)C)C1` [Compound 41], the IC50 is not above 5 nM. Consider `[2H]C([2H])([2H])C([2H])(C([2H])([2H])[2H])[C@@]([2H])(NC(=O)OC)C(=O)N1C[C@@H](C)C[C@H]1c1ncc(C#Cc2ccc(C#Cc3cnc([C@@H]4C[C@H](C)CN4C(=O)[C@@H](NC(=O)OC)C(C)C)[nH]3)cc2)[nH]1` [Compound 44], for which the IC50 is not above 5 nM. As for `COC(=O)N[C@H](C(=O)N1C[C@@H](C)C[C@H]1c1ncc(C#Cc2ccc(C#Cc3cnc([C@@H]4C[C@H](C)CN4C(=O)[C@@H](NC(=O)OC)C(C)C)[nH]3)c3c2OC(F)(F)O3)[nH]1)C(C)C` [Compound 45], the figure is not above 5 nM; as for `COC(=O)N[C@H](C(=O)N[C@H](C(=O)N1C[C@@H](C)C[C@H]1c1ncc(C#Cc2ccc(C#Cc3cnc([C@@H]4C[C@H](C)CN4C(=O)[C@@H](NC(=O)OC)C(C)C)[nH]3)cc2)[nH]1)C(C)C)C(C)C` [Compound 46], not above 5 nM; as for `COC(=O)N[C@H](C(=O)N1C[C@@H](C)C[C@H]1c1nc(C)c(-c2cc3sc(-c4[nH]c([C@@H]5C[C@H](C)CN5C(=O)[C@@H](NC(=O)OC)C(C)C)nc4C)cc3s2)[nH]1)C(C)C` [Compound 47], not above 5 nM.

Consider `COC(=O)N[C@H](C(=O)N1C[C@@H](C)C[C@H]1c1nc(C(F)(F)F)c(C#Cc2ccc(C#Cc3[nH]c([C@@H]4C[C@H](C)CN4C(=O)[C@@H](NC(=O)OC)C(C)C)nc3C(F)(F)F)cc2)[nH]1)C(C)C` [Compound 48], for which the IC50 is not above 5 nM.

In turn, `COC(=O)N[C@H](C(=O)N1C[C@@H](C)C[C@H]1c1nc(-c2ccc3cc(-c4c[nH]c([C@@H]5C[C@H](C)CN5C(=O)[C@@H](NC(=O)OC)C(C)C)n4)ccc3c2)c[nH]1)C(C)C` [Compound 49] came in with an IC50 not above 5 nM. For the compound `COC(=O)N[C@H](C(=O)N1C[C@@H](C)C[C@@H]1c1ncc(C#Cc2ccc(C#Cc3cnc([C@@H]4C[C@H](C)CN4C(=O)[C@@H](NC(=O)OC)C(C)C)[nH]3)cc2)[nH]1)C(C)C` [Compound 52], the IC50 lay within 5 to 5000 nM.

Turning to `COC(=O)N[C@H](C(=O)N1C[C@@H](C)C[C@H]1c1nc(C#CC#Cc2c[nH]c([C@@H]3C[C@H](C)CN3C(=O)[C@@H](NC(=O)OC)C(C)C)n2)c[nH]1)C(C)C` [Compound 53], the 50% inhibitory concentration (IC50) was not above 5 nM. As for `COC(=O)N[C@H](C(=O)N1C[C@@H](C)C[C@H]1c1ncc(C#Cc2ccc(C#Cc3cnc([C@@H]4C[C@H](C)CN4C(=O)OC(C)(C)C)[nH]3)cc2)[nH]1)C(C)C` [Compound 54], the figure is not above 5 nM; as for `COC(=O)N[C@H](C(=O)N1C[C@@H](C)C[C@H]1c1nc(C#Cc2ccc3nc(C#Cc4c[nH]c([C@@H]5C[C@H](C)CN5C(=O)[C@@H](NC(=O)OC)C(C)C)n4)ccc3c2)c[nH]1)C(C)C` [Compound 55], not above 5 nM; as for `COC(=O)N[C@H](C(=O)N1C[C@@H](C)C[C@H]1c1ncc(C#Cc2ccc(C#Cc3cnc([C@@H]4C[C@H](C)CN4C(=O)[C@@H](NC(=O)OC)C(C)C)[nH]3)nc2)[nH]1)C(C)C` [Compound 56], not above 5 nM. `COC(=O)N[C@H](C(=O)N1C[C@@H](C)C[C@H]1c1nc(C#Cc2ccc(C#Cc3c[nH]c([C@@H]4C[C@H](C)CN4C(=O)[C@@H](NC(=O)OC)C(C)C)n3)c(C(=O)OC)c2)c[nH]1)C(C)C` [Compound 57] showed an IC50 not above 5 nM. For the compound `COC(=O)N[C@H](C(=O)N1C[C@@H](C)C[C@H]1c1ncc(-c2ccc(-c3[nH]c([C@@H]4C[C@H](C)CN4C(=O)[C@@H](NC(=O)OC)C(C)C)nc3-c3cc4sccc4s3)cc2)[nH]1)C(C)C` [Compound 58], the IC50 was not above 5 nM.

`COC(=O)N[C@H](C(=O)N1C[C@@H](C)C[C@H]1c1nc(CO)c(C#Cc2ccc(C#Cc3[nH]c([C@@H]4C[C@H](C)CN4C(=O)[C@@H](NC(=O)OC)C(C)C)nc3CO)cc2)[nH]1)C(C)C` [Compound 59] displayed an IC50 of 5 to 5000 nM. As for `COC(=O)N[C@H](C(=O)N1C[C@@H](C)C[C@H]1c1nc(C#Cc2ccc(C#Cc3c[nH]c([C@@H]4C[C@H](C)CN4C(=O)[C@@H](NC(=O)OC)C(C)C)n3)s2)c[nH]1)C(C)C` [Compound 60], the figure is not above 5 nM. The compound `COC(=O)N[C@H](C(=O)N1C[C@@H](C)C[C@H]1c1nc(C#Cc2ccc3sc(C#Cc4c[nH]c([C@@H]5C[C@H](C)CN5C(=O)[C@@H](NC(=O)OC)C(C)C)n4)cc3c2)c[nH]1)C(C)C` [Compound 61] gave an IC50 not above 5 nM.

For the compound `COC(=O)N[C@H](C(=O)N1C[C@@H](C)C[C@H]1c1nc(C#Cc2ccc(C#Cc3c[nH]c([C@@H]4C[C@H](C)CN4C(=O)[C@@H](NC(=O)OC)C(C)C)n3)c(C#N)c2)c[nH]1)C(C)C` [Compound 62], the IC50 was not above 5 nM.

The compound `COC(=O)N[C@H](C(=O)N1C[C@@H](C)C[C@H]1c1nc(C#Cc2ccc(C#Cc3c[nH]c([C@@H]4C[C@H](C)CN4C(=O)[C@@H](NC(=O)OC)C(C)C)n3)c(Cl)c2)c[nH]1)C(C)C` [Compound 63] gave an IC50 not above 5 nM. As for `COC(=O)N[C@H](C(=O)N1C[C@@H](C)C[C@H]1c1ncc(C#Cc2ccc(C#Cc3cnc([C@@H]4C[C@H](CO)CN4C(=O)[C@@H](NC(=O)OC)C(C)C)[nH]3)cc2)[nH]1)C(C)C` [Compound 64], the figure is not above 5 nM; as for `C[C@H]1C[C@@H](c2ncc(-c3ccc(-c4ccc(-c5cnc([C@@H]6C[C@H](C)CN6C(=O)OC(C)(C)C)[nH]5)s4)cc3)[nH]2)N(C(=O)OC(C)(C)C)C1` [Compound 65], 5 to 5000 nM; as for `COC(=O)N[C@H](C(=O)N1C[C@@H](C)C[C@H]1c1nc(C)c(C#Cc2cc3sc(C#Cc4[nH]c([C@@H]5C[C@H](C)CN5C(=O)[C@@H](NC(=O)OC)C(C)C)nc4C)cc3s2)[nH]1)C(C)C` [Compound 66], not above 5 nM. As for `COC(=O)N[C@H](C(=O)N1C[C@@H](C)C[C@H]1c1nc(C#Cc2ccc3cc(C#Cc4c[nH]c([C@@H]5C[C@H](C)CN5C(=O)[C@@H](NC(=O)OC)C(C)C)n4)sc3c2)c[nH]1)C(C)C` [Compound 67], the figure is not above 5 nM; as for `COC(=O)N[C@H](C(=O)N1C[C@@H](OC)C[C@H]1c1ncc(C#Cc2ccc(C#Cc3cnc([C@@H]4C[C@H](OC)CN4C(=O)[C@@H](NC(=O)OC)C(C)C)[nH]3)cc2)[nH]1)C(C)C` [Compound 68], not above 5 nM; as for `COC(=O)N[C@H](C(=O)N1C[C@@H](C)C[C@H]1c1ncc(-c2ccc(-c3cc4sc(-c5cnc([C@@H]6C[C@H](C)CN6C(=O)[C@@H](NC(=O)OC)C(C)C)[nH]5)cc4s3)cc2)[nH]1)C(C)C` [Compound 69], not above 5 nM.

As for `COC(=O)N[C@H](C(=O)N1CCC[C@H]1c1nc(-c2cc3sc(-c4c[nH]c([C@@H]5CCCN5C(=O)[C@@H](NC(=O)OC)C(C)C)n4)cc3s2)c[nH]1)C(C)C` [Example 25, Methyl N-[(1S)-1-[(2S)-2-[4-[2-[2-[(2S)-1-[(2S)-2-(methoxycarbonylamino)-3-methyl-butanoyl]pyrrolidin-2-yl]-1H-imidazol-4-yl]thieno[3,2-b]thiophen-5-yl]-1H-imidazol-2-yl]pyrrolidine-1-carbonyl]-2-methyl-propyl]carbamate], the IC50 is not above 5 nM. For `COC(=O)N[C@H](C(=O)N1CC(C)(C)C[C@H]1c1nc(C)c(C#Cc2ccc(C#Cc3[nH]c([C@@H]4CC(C)(C)CN4C(=O)[C@@H](NC(=O)OC)C(C)C)nc3C)cc2)[nH]1)C(C)C` [Example 30] the value was not above 5 nM; for `COC(=O)N[C@H](C(=O)N1[C@@H](C)CC[C@H]1c1ncc(C#Cc2ccc(C#Cc3cnc([C@@H]4CC[C@H](C)N4C(=O)[C@@H](NC(=O)OC)C(C)C)[nH]3)cc2)[nH]1)C(C)C` [Example 42], not above 5 nM. For `COC(=O)N[C@H](C(=O)N1CC(C)(C)C[C@H]1c1ncc(C#Cc2ccc(C#Cc3cnc([C@@H]4CC(C)(C)CN4C(=O)[C@@H](NC(=O)OC)C(C)C)[nH]3)cc2)[nH]1)C(C)C` [Example 43] the value was not above 5 nM.
